# Laboratory results published in patent publication US11559575B2, “Multi-epitopic peptide compounds and vaccines against leishmaniasis” (INSTITUT DE RECHERCHE POUR LE DEVELOPPEMENT, priority 2018, dated 2023).
# Entries after “also recorded” stand apart in the source; their conditions may differ.
# Columns and labels:
# HLA alleles of class II = assay: Affinity of epitopes for HLA alleles of class II; assay type: binding, human; settings: for Concatenation affinity for the HLA alleles of class II: H2B-II peptides
# From the text: (§1) The multiepitopic peptide compounds (24 to 40-mer), having a high affinity with a maximized number of HLA molecules of class I and of class II, such as the affinities for the alleles HLA of class I and HLA of class II of the epitopes in the peptides of the sequences SEQ ID NO: 22, 23, 65, 66, 69, 73, 77, 96, 97, 137, 138, and 157, 185, have a high immunoprevalent potential corresponding to an optimal vaccine coverage, in particular for the populations concerned. The degree of coverage of the peptide compounds of the invention show a very high added value compared with the peptides of the prior art.
# HLA alleles of class I = assay: Affinity of epitopes for HLA alleles of class I; assay type: binding, human
# From the text: as §1
# [1] = LmlRAB-IIB Peptide CII, Table 2
sequence,measurement,setting,value
HSMIRDLDF (listed as Leishmania infantum) [SEQ ID NO: 173],Concatenation affinity for HLA alleles of class II,"HLA alleles of class II; PSA KC-2.7 core, Table 3",HLA-DRB4*01:01
same,Affinity for HLA alleles of class I,"HLA alleles of class I; PSA KC-2.7 core, Table 3","HLA-B*35:01,; also recorded: HLA-B*58:01"
FLTDEKTSLV (listed as Leishmania infantum) [SEQ ID NO: 153],Concatenation affinity allele CII,"HLA alleles of class I; PSA KC-2.6 Peptide CII, Table 3","HLA-A*01:01, HLA-A*02:01"
VHYSEVSAK (Leishmania major) [SEQ ID NO: 136],Concatenation affinity for HLA alleles of class I,HLA alleles of class I; [1],HLA-A*03:01
NMGLLLSGT (listed as Leishmania infantum) [SEQ ID NO: 183],Concatenation affinity for HLA alleles of class I,"HLA alleles of class I; PSA KC-2.7 peptides, Table 3",HLA-A*02:02
KAINAQMSM (Leishmania major) [SEQ ID NO: 3],Affinity for the HLA alleles of class II,"HLA alleles of class II; H2B-1 epitopes, Table 1",DRB4*01:01
same,Affinity for the HLA alleles of class I,"HLA alleles of class I; H2B-1 epitopes, Table 1","HLA-B*58:01,; also recorded: HLA-B*57:01,; also recorded: HLA-B*15:01,; also recorded: HLA-A*30:01"
KGRSENAIVTSRKVQ (Leishmania major) [SEQ ID NO: 106],Concatenation affinity for HLA alleles of class II,"HLA alleles of class II; LmlRAB-IIB peptides, Table 2","HLA-DRB1*01:01, HLA-DRB1*07:01,; also recorded: HLA-DRB1*11:01, HLA-DRB1*12:01,; also recorded: HLA-DRB5*01:01"
VYVGRSLKAINAQMS (Leishmania major) [SEQ ID NO: 32],Concatenation affinity for the HLA alleles of class II,HLA alleles of class II; Table 1,"HLA-DRB1*01:01, HLA-DRB1*04:05, HLA-DRB1*07:01,; also recorded: HLA-DRB4*01:01, HLA-DRB1*04:01, HLA-DRB1*09:01,; also recorded: HLA-DRB1*03:01, HLA-DRB1*11:01, HLA-DRB1*15:01,; also recorded: HLA-DRB1*08:02"
EVFDLFTDV (Leishmania major) [SEQ ID NO: 120],Affinity for HLA alleles of class I,"HLA alleles of class I; LmlRAB-IIB core, Table 2","HLA-A*02:03,; also recorded: HLA-A*02:06,; also recorded: HLA-A*68:02"
HLSIVADHM (Leishmania major) [SEQ ID NO: 88],Concatenation affinity for HLA alleles of class II,"HLA alleles of class II; LmLRAB-IIA core, Table 2",HLA-DRB1*01:01
RSGEGYFLTDEKTSL (listed as Leishmania infantum) [SEQ ID NO: 143],Concatenation affinity for HLA alleles of class II,"HLA alleles of class II; PSA KC-2.6 peptides, Table 3","HLA-DRB1*01:01, HLA-DRB1*03:01,; also recorded: HLA-DRB1*04:01, HLA-DRB3*01:01,; also recorded: HLA-DPA1*03:01/DPB1*14:01"
RSWNVYVGRSLKAIN (Leishmania major) [SEQ ID NO: 28],Concatenation affinity for the HLA alleles of class II,HLA alleles of class II; Table 1,"HLA-DRB5*01:01, HLA-DRB1*01:01, HLA-DRB1*03:01,; also recorded: HLA-DRB1*04:01, HLA-DRB1*11:01, HLA-DRB1*13:02,; also recorded: HLA-DRB1*04:05, HLA-DRB1*07:01, HLA-DRB1*09:01,; also recorded: HLA-DRB1*15:01, HLA-DPA1*02:01/DPB1*01:01,; also recorded: HLA-DRB1*08:02"
ENAIVTSRK (Leishmania major) [SEQ ID NO: 129],Concatenation affinity for HLA alleles of class I,HLA alleles of class I; [1],HLA-A*68:01
TSRKDQEEV [SEQ ID NO: 135],Concatenation affinity for HLA alleles of class I,HLA alleles of class I; [1],"HLA-B*15:01, HLA-A*30:01, HLA-A*68:02"
VGRHLSIVADHMPHL (Leishmania major) [SEQ ID NO: 85],Concatenation affinity for HLA alleles of class II,"HLA alleles of class II; LmLRAB-IIA peptides, Table 2","HLA-DRB1*03:01,; also recorded: HLA-DRB3*01:01,; also recorded: HLA-DRB1*13:02,; also recorded: HLA-DRB1*15:01,"
SDYSHSMIRDLDFSN (listed as Leishmania infantum) [SEQ ID NO: 166],Concatenation affinity for HLA alleles of class II,"HLA alleles of class II; PSA KC-2.7 peptides, Table 3","HLA-DRB1*04:05, HLA-DRB1*07:01,; also recorded: HLA-DRB1*12:01, HLA-DRB1*09:01,; also recorded: HLA-DRB4*01:01,; also recorded: HLA-DPA1*02:01/DPB1*14:01"
MPSGSDYSH (listed as Leishmania infantum) [SEQ ID NO: 182],Concatenation affinity for HLA alleles of class I,"HLA alleles of class I; PSA KC-2.7 peptides, Table 3","HLA-B*35:01, HLA-B*53:01"
FDLFTDVHYSEVSAK (Leishmania major) [SEQ ID NO: 103],Concatenation affinity for HLA alleles of class II,"HLA alleles of class II; LmlRAB-IIB peptides, Table 2","HLA-DRB1*01:01, HLA-DRB1*03:01,; also recorded: HLA-DRB1*07:01, HLA-DRB1*09:01,; also recorded: HLA-DPA1*03:01/DPB1*04:02,; also recorded: HLA-DPA1*02:01/HLA-DPB1*14:01"
INAQMSMSHRTMKIV (Leishmania major) [SEQ ID NO: 41],Concatenation affinity for the HLA alleles of class II,HLA alleles of class II; Table 1,"HLA-DRB1*04:01, HLA-DRB1*15:01, HLA-DRB1*05:01,; also recorded: HLA-DRB1*03:01, HLA-DRB1*09:01, HLA-DRB1*11:01,; also recorded: HLA-DRB1*01:01, HLA-DRB4*01:01, HLA-DRB1*07:01,; also recorded: HLA-DRB1*13:02"
DLFTDVHYSEVSAKT (Leishmania major) [SEQ ID NO: 99],Concatenation affinity for HLA alleles of class II,"HLA alleles of class II; LmlRAB-IIB peptides, Table 2","HLA-DRB1*04:01, HLA-DRB7*01:01,; also recorded: HLA-DPA1*01:03/DPB1*02:01,; also recorded: HLA-DPA1*01/DPB1*04:01, HLA-DPA1*02:01/; also recorded: HLA-DPB1*14:01"
RLHSVVGRH (Leishmania major) [SEQ ID NO: 93],Affinity allele class I,"HLA alleles of class I; LmLRAB-IIA peptides, Table 2","HLA-A*03:01, HLA-A*30:02"
NAQMSMSHR (Leishmania major) [SEQ ID NO: 46],Affinity HLA alleles of class II,"HLA alleles of class II; H2B-II core epitopes, Table 1",HLA-DRB1*01:01
EEVFDLFTDVHYSEV (Leishmania major) [SEQ ID NO: 100],Concatenation affinity for HLA alleles of class II,"HLA alleles of class II; LmlRAB-IIB peptides, Table 2","HLA-DRB1*01:01, HLA-DRB1*03:01,; also recorded: HLA-DRB1*04:01, HLA-DRB1*04:05,; also recorded: HLA-DRB1*07:01, HLA-DRB1*15:01,; also recorded: HLA-DRB1*12:01, HLA-DRB3*01:01,; also recorded: HLA-DPA1*01:03/DPB1*02:01,; also recorded: HLA-DPA1*01/DPB1*04:01, HLA-DPA1*02:01/; also recorded: HLA-DPB1*14:01"
IVTSRKVQEEVFDLF (Leishmania major) [SEQ ID NO: 105],Concatenation affinity for HLA alleles of class II,"HLA alleles of class II; LmlRAB-IIB peptides, Table 2","HLA-DRB1*03:01, HLA-DRB1*11:01,; also recorded: HLA-DPA1*01:03/DPB1*02:01,; also recorded: HLA-DPA1*01/DPB1*04:01,; also recorded: HLA-DPA1*02:01/DPB1*05:01,; also recorded: HLA-DPA1*02:01/HLA-DPB1*14:01"
LTDEKTSLV (listed as Leishmania infantum) [SEQ ID NO: 148],Concatenation affinity for HLA alleles of class II,"HLA alleles of class II; PSA KC-2.6 core, Table 3",HLA-DRB1*04:01
same,Affinity HLA alleles of class I,"HLA alleles of class I; PSA KC-2.6 core, Table 3","HLA-A*02:01,; also recorded: HLA-A*02:03,; also recorded: HLA-A*02:06,; also recorded: HLA-A*68:02"
SDYSHSMIR (listed as Leishmania infantum) [SEQ ID NO: 177],Concatenation affinity for HLA alleles of class II,"HLA alleles of class II; PSA KC-2.7 core, Table 3","HLA-DRB1*07:01,; also recorded: HLA-DRB5*01:01"
same,Affinity for HLA alleles of class I,"HLA alleles of class I; PSA KC-2.7 core, Table 3","HLA-A*31:01,; also recorded: HLA-A*68:01"
